This is an account of results in US20220048884A1, “NRF2 ACTIVATOR” (BIOGEN MA INC., priority 2017, published 2022).

The EC50 is the midpoint of the concentration-response curve. Read a low EC50 as an effect from little substance.

One assay concerns NRF2. Description: PathHunter Nuclear Translocation assay (DiscoverX), agonist format. Format: cell-based. Conditions: 6 hours incubation, 10 concentrations, 30 μM top concentration. The text has this: Vehicle concentration was 1%.
Microplates were read following signal generation with a PerkinElmer Envision™ instrument for chemiluminescent signal detection.

Assay [1] deals with human astrocytes. Description: Cytoprotection of astrocytes against sodium arsenite. Format: cell-based. Conditions: compound 20 hrs before 25 μM sodium arsenite, then 22 hrs. The method, then:
(§1) Human astrocytes from ScienCell (cat #1820) were grown in astrocyte medium per supplier's instructions. Cells cultured for no more than two passages were plated in 96-well plates at 40,000 cells per well for gene transcription experiments and 20,000 cell per well for glutathione and cytoprotection assays.
Astrocytes were treated for 20 hrs as above, then the medium was removed and replaced with serum- and supplement-free growth medium with and without 25 μM sodium arsenite. After 22 hrs., cells were washed with PBS, fixed with 4% paraformaldehyde/4% sucrose in PBS, stained with 4′,6-Diamidino-2-phenylindole dihydrochloride (DAPI) and counted by quantitative fluorescence microscopy.

Assay [2] has as its system Nrf2 target genes. Description: Nrf2 target gene expression (qRT-PCR) in tissues of mice after oral dosing. Format: in vivo, C57BL/6 mice. Conditions: wild-type mice, 10 and 50 mg/kg single oral dose, 2 hours after dosing. The text has this:
RNA was extracted in chloroform and the aqueous phase was mixed with an equal volume of 70% ethanol. Extracted RNA was applied to RNeasy 96 plates and purified by the spin method according to the manufacturer's protocol (RNeasy 96 Universal Tissue Protocol, QIAgen, Hilden Germany).
Background: Quantitative PCR measures a nucleic acid by following its amplification.

Assay [3] concerns Nrf2 target genes. Description: Gene expression (RT-PCR) in cultured human astrocytes. The format is cell-based. Conditions: 20 hours, increasing concentrations. The method, then: as §1
Primary cultures of human spinal cord astrocytes were treated with compound for 20 hours. The cells were then rinsed in PBS, lysed, and processed for RNA using Ambion Tagman™ Cells-to-CT kit. The resulting cDNA was stored at −20° C. until analysis by real-time polymerase chain reaction (RT-PCR). The cDNA mixture from Cells-to-CT was diluted 5× before loading into PCR. This yields results similar to using 6 ng of purified cDNA. RT-PCR was performed on Life Technologies QuantStudio platform using OpenArray technique according to manufacturer's protocol using the following Taqman primers: […]
The comparative CT method was used to calculate fold changes using ThermoFisher Cloud software for PCR analysis. Samples were compared to vehicle control.

In assay [4] the test system is human astrocytes. Description: Glutathione assay in human astrocytes (GSH-Glo). The format is cell-based. The conditions noted are these: 20-hr exposure. The method, then: as §1
Intracellular glutathione was measured after a 20-hr exposure to test compounds by a two-step process. First, cells were lysed and luciferin quantitatively generated from substrate, catalyzed by glutathione-S-transferase in the presence of analyte glutathione. Then luciferin was assayed using stabilized luciferase to produce a luminescent signal proportional to the concentration of glutathione (Promega GSH-Glo, cat #V6912).

As for `CCn1nnc2c(C)c([C@H](c3ccc4c(c3)CN(C(=O)c3ccc(C)c(C)c3)CC4)[C@H](C)C(=O)ON)ccc21` [Example 133, amino (2S,3S)-3-[2-(3,4-dimethylbenzoyl)-3,4-dihydro-1H-isoquinolin-7-yl]-3-(1-ethyl-4-methyl-benzotriazol-5-yl)-2-methyl-propanoate], the EC50 with NRF2 was < 100 nM.

Take `CCn1nnc2c(C)c([C@@H](CC(=O)O)c3ccc4c(c3)CN(C(=O)c3c(C)c(C)cc(C)c3C)CC4)ccc21` [Example 47-Ent1, (S)-3-(1-ethyl-4-methyl-1H-benzo[d][1,2,3]triazol-5-yl)-3-(2-(2,3,5,6-tetramethylbenzoyl)-1,2,3,4-tetrahydroisoquinolin-7-yl)propanoic acid]: in the assay with human astrocytes [1], the “protection from oxidative stress-induced cell death” value is “protects cells from oxidative stress-induced cell death”. Also, the “expression of Osgin1 in brain” value in the assay on Nrf2 target genes [2] is listed as “increases the expression”. In addition, in the assay with Nrf2 target genes [3], the “transcription of GCLC” value is “induces transcription”, the “transcription of HMOX1” value is recorded as “induces transcription”, the “transcription of NQO1” value is “induces transcription” and the “transcription of OSGIN1” value was “induces transcription”. Further, the intracellular glutathione entry in the assay with human astrocytes [4] was “increases intracellular glutathione”.
